“And” between values parts separate entries of the source, which are not always exact repeats. Identical values can stand only once.
Tested on: Trypanosoma brucei brucei
Assay: microbe, parasite or virus in culture
Assay type: functional, organism-based, STIB 795
Conditions: not given

| SMILES | IC50 |
| --- | --- |
| CCN1CCS/C1=C\C=C\C1=[N+](CC)CCS1 | 0.39 µM and 0.092 µM |
| Cc1ccccc1-c1nnnn1C1CC(=O)C2OCC1O2 (configuration not stated) | 4.75 µM |
| CCN1/C(=C/C2=CC(=O)CC(C)(C)C2)Sc2ccccc21 | 5.54 µM |
| Cn1c(-c2ccco2)nn(C2CC(=O)C3OCC2O3)c1=S (configuration not stated) | 3.25 µM |
| Cc1c(C)n(CC(O)CNCc2ccccc2)c2ccccc12 (configuration not stated) | 7.63 µM |
| O=C1CC(n2nnn(C3CCCCC3)c2=S)C2COC1O2 (configuration not stated) | 5.11 µM and 1.33 µM |
| CCN(CC)c1ccc(CNCCc2c(C)[nH]c3ccccc23)cc1 | 3.4 µM |
| Cc1ccc(OCc2nn(C3CC(=O)C4OCC3O4)c(=S)n2C)cc1C (configuration not stated) | 4.62 µM |
| COc1ccc(-c2nn(C3CC(=O)C4OCC3O4)c(=S)n2C)cc1OC (configuration not stated) | 5.08 µM |
| Cc1cc2cc3c(cc2c(C)n1)c1ccccc1n3C | 4.73 µM |
| CN(C)c1ccc(/C=C2\SC(=N)N(c3nccs3)C2=O)cc1 | 6.09 µM and 15.5 µM |

Same assay, conditions: Trypanosoma brucei, STIB 795

| SMILES | IC50 |
| --- | --- |
| O=c1cc(-c2ccccc2)c2ccc(O)c(O)c2o1 | > 10.4 µM |
| Cc1cccc(C(=N)NOC(=O)c2ccc3c(c2)OCO3)c1 | > 10.4 µM |
| Cc1cc(N)n2ncc(-c3ccc(Cl)cc3)c2n1 | > 10.4 µM |
| CC(C)COCc1ccc(O)c2ncccc12 | > 10.4 µM |
| CCn1c(C)cc(=S)c2ccccc21 | > 10.4 µM |
| CCCCOc1ccc(C(=O)NNC(=S)NC(=O)CC)cc1 | > 10.4 µM |
| Cc1ccc(Cl)cc1N1CCN(CCN)CC1 | > 10.4 µM |
| Cc1ccc(C(=N)NOC(=O)c2ccco2)cc1 | > 10.4 µM |
| COc1ccc(Nc2nccc(-c3cccc(N)c3)n2)cc1 | > 10.4 µM |
| CCC(=O)Nc1nc2ccccc2n1Cc1ccccc1C | > 10.4 µM |
| Oc1ccc(CNc2ccccc2F)c2cccnc12 | > 10.4 µM |
| O=C1C(C2=C(O)c3ccccc3C2=O)=Nc2ccccc21 | > 10.4 µM |
| Cc1ccc(C(=N)NOC(=O)c2cccs2)cc1 | > 10.4 µM |
| COc1ccc(NC2=NC(=O)C(CO)(CO)S2)cc1 | > 10.4 µM |
| Cc1occc1C(=O)O/N=C(\N)c1ccc(Cl)cc1 | > 10.4 µM |
| Cc1ccc(C(CC(=O)c2ccco2)SCCO)cc1 (configuration not stated) | > 10.4 µM |
| CCC(=O)c1coc2ccc(O)cc12 | > 10.4 µM |
| O=C(NO)c1ccccc1C(F)(F)F | > 10.4 µM |
| N=C(NOC(=O)c1cccc(Cl)c1)c1cccnc1 | > 10.4 µM |
| N=C(NOC(=O)C12CC3CC(CC(C3)C1)C2)c1cccnc1 | > 10.4 µM |
| NC(CCCCc1ccccc1)c1cccc2ccccc12 (configuration not stated) | > 10.4 µM |
| N=C(N)Nc1nc(-c2ccccc2)c2cc(Cl)ccc2n1 | > 10.4 µM |

| SMILES | IC50 |
| --- | --- |
| CN(C)CC(C(=O)c1ccccc1)c1ccccc1 (configuration not stated) | > 10.4 µM |
| O=NC1=C(c2c(O)[nH]c3ccccc23)CCCC1 | > 10.4 µM |
| CC1CC(NC2CCCCC2)=Nc2ccccc2N1Cc1ccccc1 (configuration not stated) | > 10.4 µM |
| Cn1c(=O)cc(NNc2ccccc2)[nH]c1=O | > 10.4 µM |
| CCn1nc(-c2ccc(OC)cc2)nc2c(=O)n(C)c(=O)nc1-2 | > 10.4 µM |
| COc1cccc(Nc2nc(N)c(C(=O)c3ccccc3F)s2)c1 | > 10.4 µM |
| O=C(CSc1nc2[nH]ncc2c(=O)n1-c1ccccc1)Nc1nccs1 | > 10.4 µM |
| CCOC(=O)COC1=C(c2ccccc2)C(=O)c2ccccc2C1=O | > 10.4 µM |
| Cn1nc(-c2cccs2)nc2c(=O)n(C)c(=O)nc1-2 | > 10.4 µM |
| C=C1N(CCCCN2C(=C)C(C)(C)c3ccccc32)c2ccccc2C1(C)C | > 10.4 µM |
| Cc1ccccc1C(=O)/C(C#N)=N/Nc1c(C)n(C)n(-c2ccccc2)c1=O | > 10.4 µM |
| O=C(N/N=C/c1ccc(O)c2ncccc12)c1ccco1 | > 10.4 µM |
| O=c1c2ccccc2nc(SCc2cccnc2)n1Cc1ccco1 | > 10.4 µM |
| CC(=O)N1/C(=C/c2ccncc2)C(=O)c2ccccc21 | > 10.4 µM |
| CN(C)CCC1=Cc2cc(Cl)ccc2Sc2ccccc21 | > 10.4 µM |
| Cc1ccc2[nH]c3c(c2c1)CCCC3NCCCOc1ccc(F)cc1 (configuration not stated) | > 10.4 µM |
| CCN(CC)c1ccc(N)c(C)c1 | > 10.4 µM |
| N=C1C=Cc2ccc(N)c3cccc1c23 | > 10.4 µM |
| Cc1ncc(C)c2c1[nH]c1ccccc12 | > 10.4 µM |
| CCc1no[c+](-c2ccccc2O)n1C | > 10.4 µM |
| Clc1nn2nnnc2c2ccccc12 | > 10.4 µM |
| CC1CCc2nc3ccccc3c(N)c2C1 (configuration not stated) | > 10.4 µM |

| SMILES | IC50 |
| --- | --- |
| CCc1c(C)nc(SCC#N)c(C#N)c1C | > 10.4 µM |
| CC1=C(C)C(=O)C(c2cccs2)=C(C)C1=O | > 10.4 µM |
| Oc1cccc2ccc(Nc3ccccc3)nc12 | > 10.4 µM |
| NC(=S)N/N=C/c1sc(=O)[nH]c1Cl | > 10.4 µM |
| O=C1/C(=N\c2ccccc2)Sc2ccccc21 | > 10.4 µM |
| CNc1nsc(C(=O)c2ccc(C)cc2)c1N | > 10.4 µM |
| ON=C(/C=C/c1ccccc1)/C=C/c1ccccc1 | > 10.4 µM |
| CC1=C(C#N)C(C)C2=C(c3ccccc3C2=O)N1C (configuration not stated) | > 10.4 µM |
| CC(=O)c1ccc2c(c1)[nH]c1cc(C(C)=O)ccc12 | > 10.4 µM |
| Cc1ccccc1C(=O)O/N=C(\N)c1ccccn1 | > 10.4 µM |
| Oc1ccc2ccccc2c1/N=N/c1nccs1 | > 10.4 µM |
| O=C1C(=O)N(CO)c2ccc(Br)cc21 | > 10.4 µM |
| CCn1c(-c2ccccc2Cl)nc2ccccc21 | > 10.4 µM |
| N/C(=N\OC(=O)c1ccccc1F)c1ccccc1 | > 10.4 µM |
| N/C(=N\OC(=O)c1ccc(F)cc1)c1cccnc1 | > 10.4 µM |
| CCC(=O)NCCc1nc(-c2ccccc2)cs1 | > 10.4 µM |
| O=C(/C=C/n1c(=O)oc2ccccc21)c1ccccc1 | > 10.4 µM |
| ON=C1C=CC(=NNc2nncc3ccccc23)C=C1 | > 10.4 µM |
| O=C(/C=C/c1ccc(F)cc1)n1cnc2ccccc21 | > 10.4 µM |
| Cc1c(-c2cccc(O)c2)ccc2nc(N)nc(N)c12 | > 10.4 µM |
| O=C(Nc1cc(Cl)cc(Cl)c1)c1ccccn1 | > 10.4 µM |
| Cc1ccc(OCCn2c(N)nc3ccccc32)cc1 | > 10.4 µM |

| SMILES | IC50 |
| --- | --- |
| Cc1c(-c2ccc(O)c(O)c2)oc2ccccc2c1=O | > 10.4 µM |
| Cc1ccc(O)c(C(=O)CC(=O)c2ccccc2C)c1 | > 10.4 µM |
| O=C1c2ccccc2C2=NS(=O)(=O)c3cccc1c32 | > 10.4 µM |
| O=C(CCN1CCC(c2ccccc2)C1)c1ccco1 (configuration not stated) | > 10.4 µM |
| CCN(CC)c1cc(C)nc(NCc2ccccc2)n1 | > 10.4 µM |
| COc1ccc(C(=O)O/N=C(\N)c2cccnc2)cc1 | > 10.4 µM |
| COc1ccc(/C(C)=N\Nc2nnc(C)c(O)n2)cc1 | > 10.4 µM |
| COc1ccc(O)c(/C=N/NC(=O)c2nonc2C)c1 | > 10.4 µM |
| O=c1oc2ccccc2n1Cc1c(F)cccc1Cl | > 10.4 µM |
| COc1ccc(/N=N/c2ccc(O)c3ncccc23)cc1 | > 10.4 µM |
| CCCC(CCC)C(=O)Nc1ccc(O)cc1C(=O)O | > 10.4 µM |
| O=c1[nH]c(NCCCO)nc2sc3c(c12)CCCC3 | > 10.4 µM |
| Cc1cc(=O)[nH]c(Nc2ccc(Br)cc2)n1 | > 10.4 µM |
| C(=N\Nc1nc(-c2ccccc2)cs1)/c1ccncc1 | > 10.4 µM |
| Oc1ccccc1/C=N/Nc1ncc(Cl)cc1Cl | > 10.4 µM |
| O=C(Cn1ncc(Cl)c(Cl)c1=O)c1ccccc1 | > 10.4 µM |
| Cc1cc(C)c(CCCc2c(C)nc(N)nc2N)cc1C | > 10.4 µM |
| C=CCc1cccc(/C=N/NC(=O)c2nonc2C)c1O | > 10.4 µM |
| Cc1ccccc1-c1nnnn1C1CC(=O)C2OCC1O2 (configuration not stated) | 4.58 µM |
| c1ccc(Oc2cccc(-c3nc4ccccc4[nH]3)c2)cc1 | > 10.4 µM |
| Cc1cnc(NC(=O)c2ccc(Cl)c(Cl)c2)s1 | > 10.4 µM |
| CCOC(=O)Cc1ccc(NCc2ccc(F)cc2)cc1 | > 10.4 µM |

| SMILES | IC50 |
| --- | --- |
| COc1ccc(/C(N)=N/OC(=O)c2cccc(F)c2)cc1 | > 10.4 µM |
| CCC(=O)c1ccc(Oc2cc(=O)n(C)c(=O)n2C)cc1 | > 10.4 µM |
| C/C(=N\NC(=O)c1cccc(Cl)c1)c1ccccc1O | > 10.4 µM |
| Oc1ccccc1/C=N\NC(=S)Nc1ccc(F)cc1 | > 10.4 µM |
| CNC(c1ccccc1)C1c2cccc3cccc(c23)C1O (configuration not stated) | > 10.4 µM |
| Cc1ccc(C(=O)O/N=C(\N)c2cccnc2)cc1Cl | > 10.4 µM |
| Cc1cccc(/C=N\Nc2nncc(-c3ccccc3)n2)n1 | > 10.4 µM |
| Cc1ccc(Nc2nn3nnnc3c3ccccc23)c(C)c1 | > 10.4 µM |
| Nc1ncc(CCc2cccc(-c3ccccc3)c2)c(N)n1 | > 10.4 µM |
| CC(C)=CCC1(C)C(=O)N(c2ccccc2)c2ccccc21 (configuration not stated) | > 10.4 µM |
| C=CCN1C(=O)/C(=N/NC(=S)SC)c2ccccc21 | > 10.4 µM |
| CCCCN(CCCC)CCC12CC3CC(CC(C3)C1)C2 | > 10.4 µM |
| CC1=C/C(=N\OC(=O)c2ccccc2Cl)CC(C)(C)C1 | > 10.4 µM |
| CC(=O)c1nc2ccccc2n1CC(=O)c1ccc(C)cc1 | > 10.4 µM |
| CCc1ccccc1Nc1cc(C)nc2c(OC)cccc12 | > 10.4 µM |
| CCCCC(O)(CCCC)C(=O)NNc1ccc(C)cc1 | > 10.4 µM |
| COc1ccccc1NC(=O)c1cc2ccccc2cc1O | > 10.4 µM |
| CC(C)(C)C(=O)NN=c1c2ccccc2[nH]c2ccccc12 | > 10.4 µM |
| O=C1/C(=C2\NCC(c3ccccc3)O2)Sc2ccccc21 (configuration not stated) | > 10.4 µM |
| S=C1N(c2ccccc2)c2ccccc2C12CCOCC2 | > 10.4 µM |
| CN(C)CCCC1=Cc2ccccc2Sc2ccccc21 | > 10.4 µM |
| Fc1ccccc1Cn1c(C2CCCO2)nc2ccccc21 (configuration not stated) | > 10.4 µM |

| SMILES | IC50 |
| --- | --- |
| O=c1c(-c2ccccc2)c(-c2ccccc2)[nH]c2ccccc12 | > 10.4 µM |
| Oc1ccc(/C=N/N2CCN(c3ccccc3)CC2)cc1O | > 10.4 µM |
| COc1ccc(/C(N)=N/OC(=O)c2ccc(C)c(C)c2)cc1 | > 10.4 µM |
| CC(C)(C)c1ccc(C(=O)NNC(=O)c2cnccn2)cc1 | > 10.4 µM |
| O=c1c(Cl)c(Cl)cnn1C12CC3CC(CC(C3)C1)C2 | > 10.4 µM |
| Cc1c(-c2noc(C(=O)NC(C)C)n2)oc2c(C)cccc12 | > 10.4 µM |
| CCOC(=O)c1c(C)[nH]c(=S)c(C#N)c1-c1ccncc1 | > 10.4 µM |
| c1ccc(Nc2n[n+](-c3ccccc3)nc3ccccc23)cc1 | > 10.4 µM |
| CCN1/C(=C/C2=CC(=O)CC(C)(C)C2)Sc2ccccc21 | 5.4 µM |
| CC(C)CCn1c(C(C)N2CCCCC2)nc2ccccc21 (configuration not stated) | > 10.4 µM |
| CCC(=O)c1sc(Nc2ccc(F)c(Cl)c2)nc1N | > 10.4 µM |
| O=C(CCN1CCCCC1)Nc1ccc(C2CCCC2)cc1 | > 10.4 µM |
| Cn1c(-c2ccco2)nn(C2CC(=O)C3OCC2O3)c1=S (configuration not stated) | 5.5 µM |
| Cc1c(C)n(CC(O)CNCc2ccccc2)c2ccccc12 (configuration not stated) | 5.49 µM |
| CCN(CC)c1ccc(CNCCc2c(C)[nH]c3ccccc23)cc1 | 5.01 µM |
| Cc1ccc(OCc2nn(C3CC(=O)C4OCC3O4)c(=S)n2C)cc1C (configuration not stated) | 4.31 µM |
| COc1ccc(-c2nn(C3CC(=O)C4OCC3O4)c(=S)n2C)cc1OC (configuration not stated) | 4.53 µM |
| Nc1ccccc1S(=O)(=O)Nc1cccc2cccnc12 | > 10.4 µM |
| Cc1cc2cc3c(cc2c(C)n1)c1ccccc1n3C | 5.19 µM |
| CCCCNc1ccc2cccc(O)c2n1 | > 10.4 µM |
| C=CCc1cccc(/C=N/NC(=O)c2cccs2)c1O | > 10.4 µM |
